Assay results published in BindingDB's records for doi:10.1016/j.ejmech.2021.113485 (Samara State Technical University, 2021).

Test: Inhibition of p37 in Vaccinia virus Copenhagen infected in African green monkey Vero cells assessed as reduction in viral reproduction incubated for 4 days by neutral red dye based colorimetric analysis

Compound	IC50
O=C(NC12CC3CC(CC(C3)C1)C2)c1ccc(C(F)(F)F)cc1	0.133 µM
CCC12CC3CC(C1)CC(NC(=O)c1ccc(C(F)(F)F)cc1)(C3)C2	4.1 µM
CN(C(=O)c1ccc(C(F)(F)F)cc1)C12CC3CC(CC(C3)C1)C2	4.85 µM
O=C(NCC12CC3CC(CC(C3)C1)C2)c1ccc(C(F)(F)F)cc1	0.27 µM
O=C(NCC12CC3CC(CC(C3)C1)C2)c1ccc(Br)cc1	8.3 µM
O=C(NC1C2CC3CC(C2)CC1C3)c1ccc(Br)cc1 (stereo not drawn)	3.06 µM
O=C(NC1C2CC3CC(C2)CC1C3)c1ccc(C(F)(F)F)cc1 (stereo not drawn)	0.216 µM
O=C(NNC(=O)C12CC3CC(CC(C3)C1)C2)c1ccc(C(F)(F)F)cc1	1.07 µM
CC12CC3CC(C)(C1)CC(C(=O)NNC(=O)c1ccc(C(F)(F)F)cc1)(C3)C2	30.9 µM
CCC12CC3CC(C1)CC(C(=O)NNC(=O)c1ccc(C(F)(F)F)cc1)(C3)C2	12.5 µM
O=C(NNC(=O)c1ccc(C(F)(F)F)cc1)NC12CC3CC(CC(C3)C1)C2	36.3 µM
O=C(NN=C1C2CC3CC(C2)CC1C3)c1ccc(C(F)(F)F)cc1	198 µM
O=C(NNC1C2CC3CC(C2)CC1C3)c1ccc(C(F)(F)F)cc1 (stereo not drawn)	2.8 µM
O=C(NNC1C2CC3CC1CC(Cl)(C3)C2)c1ccc(C(F)(F)F)cc1 (stereo not drawn)	3.52 µM
CC(NNC(=O)c1ccc(C(F)(F)F)cc1)C12CC3CC(CC(C3)C1)C2 (stereo not drawn)	0.515 µM
CCC12CC3CC(C1)CC(NNC(=O)c1ccc(C(F)(F)F)cc1)(C3)C2	1.66 µM
CC12CC3CC(C1)CC(NC(=O)c1ccc(C(F)(F)F)cc1)(C3)C2	8.98 µM
O=C(NN1C(=O)[C@@H]2[C@@H]3C=C[C@@H]([C@H]4C[C@@H]34)[C@@H]2C1=O)c1ccc(C(F)(F)F)cc1 [Tecovirimat]	0.0027 µM
